# From PMC2649788 (Drug metabolism and disposition: the biological fate of …, 2008)
# Where a chain is given by its changes, count along the chain named. Where “and” joins values, the source holds several entries; their conditions need not be identical. Equal entries are not always repeated.
# Assays:
# [1] = system: K262R; settings: bupropion to hydroxybupropion; ref Bumpus et al., 2005; cited from earlier work
# [2] = system: 2B6*1/*4 genotype; settings: individuals with 2B6*1/*4 genotype, single dose; ref Kirchheiner at al., 2003; cited from earlier work
# [3] = system: K262R; format: biochemical, human; settings: type II inhibitors; Supporting table 1
# [4] = system: K262R; settings: in contrast to CYP2B6dH, ref Bumpus et al., 2005, 2006; cited from earlier work
# [5] = target: T1, Q172H/K262R (2B6*6) (Homo sapiens, UniProt P20813, K262R/Q172H); assay: 7-MFC O-deethylation inhibition in standard reconstitution system; settings: for Increase in Ki, Q172H/K262R compared with CYP2B6dH: 7-MFC O-deethylation; for Ki: Ki (Q172H/K262R), 7-MFC 25, 50, 100, 150 μM, global fit, duplicate
# T1 sequence (P20813 with tags, fused parts or gaps Q172H/K262R limits assumed): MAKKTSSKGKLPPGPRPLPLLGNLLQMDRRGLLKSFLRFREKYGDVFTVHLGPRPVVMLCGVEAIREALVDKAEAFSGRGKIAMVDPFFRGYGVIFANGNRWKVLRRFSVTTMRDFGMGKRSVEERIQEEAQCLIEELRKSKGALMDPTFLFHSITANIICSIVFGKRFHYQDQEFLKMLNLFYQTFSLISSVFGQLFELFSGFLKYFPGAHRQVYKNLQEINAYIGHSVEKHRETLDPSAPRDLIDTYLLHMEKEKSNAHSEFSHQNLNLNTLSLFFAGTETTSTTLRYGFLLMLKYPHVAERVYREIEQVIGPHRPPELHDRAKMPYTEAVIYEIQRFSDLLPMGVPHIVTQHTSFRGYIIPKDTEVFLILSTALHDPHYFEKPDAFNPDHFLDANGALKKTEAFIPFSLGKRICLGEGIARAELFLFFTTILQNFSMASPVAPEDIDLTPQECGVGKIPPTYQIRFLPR
# [6] = target: T2, K262R (2B6*4) (Homo sapiens, UniProt P20813, K262R); assay: as above; settings: for Increase in Ki, K262R compared with CYP2B6dH: 7-MFC O-deethylation
# T2 sequence (P20813 with tags, fused parts or gaps K262R limits assumed): T1 sequence (P20813 with tags, fused parts or gaps Q172H/K262R limits assumed) with H153Q
# [7] = target: T3, CYP2B6dH (Homo sapiens, UniProt P20813); settings: for Predicted inhibition of efavirenz metabolism (CYP2B6dH): in vivo prediction; for Predicted in vivo % activity (CYP2B6dH): remaining efavirenz metabolism relative to no inhibitor
# T3 sequence (P20813 with tags, fused parts or gaps limits assumed): T1 sequence (P20813 with tags, fused parts or gaps Q172H/K262R limits assumed) with H153Q, R243K
# [8] = read-out: Estimated in vivo Cmax; plasma, normal population; used as [I]; ref www.mentalhealth.com, www.medscape.com, www.pharmgkb.org, Burgess and Bodey, 1972, Goodwin and Drew, 2007; cited from earlier work
# [9] = target: T3, CYP2B6dH; assay: Spectral binding; settings: for Type of difference spectrum induced: CYP2B6dH and K262R, peak ~388 nm, trough ~420 nm; for ΔAmax (CYP2B6dH): difference spectra, 1 μM P450
# [10] = target: T2, K262R (2B6*4); assay: Spectral binding; settings: for ΔAmax (K262R): difference spectra, 1 μM P450; for Higher Ks, K262R compared with CYP2B6dH / ΔAmax, K262R compared with wild-type: spectral binding
# [11] = system: K262R; set-up: species or system human
# [12] = target: T4, CYP2B6 Q172H/K262R (2B6*6) (Homo sapiens, UniProt P20813, K262R/Q172H); assay: 7-MFC O-deethylation inhibition in standard reconstitution system; settings: human, pH 7.4
# T4 sequence (P20813 with tags, fused parts or gaps Q172H/K262R limits assumed): T1 sequence (P20813 with tags, fused parts or gaps Q172H/K262R limits assumed)
# [13] = target: T5, CYP2B6 K262R (2B6*4) (Homo sapiens, UniProt P20813, K262R); assay: as above; settings: human, pH 7.4
# T5 sequence (P20813 with tags, fused parts or gaps K262R limits assumed): T1 sequence (P20813 with tags, fused parts or gaps Q172H/K262R limits assumed) with H153Q
# [14] = target: T3, CYP2B6dH
# [15] = target: T1, Q172H/K262R (2B6*6)
# [16] = target: T3, CYP2B6dH; assay: 7-MFC O-deethylation inhibition in standard reconstitution system; settings: pH 7.4
# [17] = system: K262R; settings: ref Bumpus et al., 2006, cited from earlier work
# [18] = target: T3, CYP2B6dH; settings: ref Bumpus et al., 2006, cited from earlier work
# [19] = system: *1/*4 heterozygotes; settings: ref Rotger et al., 2007; cited from earlier work
smiles,measurement,setting,value
CC(NC(C)(C)C)C(=O)c1cccc(Cl)c1 (stereo not drawn) [bupropion],"Increased kcat, K262R compared with CYP2B6dH",[1],> 2 fold
same,Increased clearance,[2],1.3 fold
O=[N+]([O-])c1ccc(Cc2ccncc2)cc1 [4-(4-nitrobenzyl)pyridine],"Lower IC50, K262R compared with CYP2B6dH",[3],~ 2 fold and 2 fold
C#C[C@]1(O)CC[C@H]2[C@@H]3CCc4cc(O)ccc4[C@H]3CC[C@@]21C [17α-ethynylestradiol],Susceptibility of K262R to mechanism-based inactivation,[4],refractory
"CN[C@H]1CC[C@@H](c2ccc(Cl)c(Cl)c2)c2ccccc21 [Sertraline, sertraline]","Increase in Ki, Q172H/K262R compared with CYP2B6dH",[5],> 6 fold and > 7 fold
same,Ki,[5],2.2 µM and 2.16 µM
same,"Increase in Ki, K262R compared with CYP2B6dH",[6],~ 6 fold and 6 fold
same,Predicted inhibition of efavirenz metabolism (CYP2B6dH),[7],52%
same,Cmax,[8],0.62 µM
same,Kd,[9],0.51 ± 0.16 µM
same,Type of difference spectrum induced,[9],type I
same,ΔAmax (CYP2B6dH),[9],0.008 ± 0.0005
same,Kd,[10],2.06 ± 0.61 µM
same,ΔAmax (K262R),[10],0.02 ± 0.002
same,"Higher Ks, K262R compared with CYP2B6dH",[10],4 fold
same,"ΔAmax, K262R compared with wild-type",[10],3 fold
"COC(=O)[C@H](c1ccccc1Cl)N1CCc2sccc2C1 [Clopidogrel, clopidogrel]","Increase in Ki, Q172H/K262R compared with CYP2B6dH",[5]; listed as clopidogrel,> 6 fold and 6 fold
same,Ki,[5],0.6 µM and 0.59 µM and 0.63 µM
same,"Increase in Ki, K262R compared with CYP2B6dH",[6],4 fold
same,"Increase in Ki, K262R compared with CYP2B6dH",[6]; listed as clopidogrel,> 3 fold
same,Predicted in vivo activity (K262R),[11],0.27 (7.6) min^−1
same,Cmax,[8],9.3 µM
same,Kd,[9],0.16 ± 0.11 µM
same,Type of difference spectrum induced,[9],type I
same,ΔAmax (CYP2B6dH),[9],0.026 ± 0.002
same,Kd,[10],0.33 ± 0.14 µM
same,ΔAmax (K262R),[10],0.030 ± 0.002
same,"ΔAmax, K262R compared with wild-type",[10],similar
"Clc1ccccc1CN1CCc2sccc2C1 [Ticlopidine, ticlopidine]","Increase in Ki, K262R compared with CYP2B6dH",[6],similar
same,Predicted in vivo activity (K262R),[11],0.47 (13) min^−1
same,Cmax,[8],1.6 µM
same,Type of difference spectrum induced,[9],type I
same,ΔAmax (CYP2B6dH),[9],0.023 ± 0.001
same,ΔAmax (K262R),[10],0.025 ± 0.001
same,"Higher Ks, K262R compared with CYP2B6dH",[10],No significant changes
same,"ΔAmax, K262R compared with wild-type",[10],similar
c1ccc(-c2ccc(Cn3ccnc3)cc2)cc1 [1-(4-phenyl)benzylimidazole],"Lower IC50, K262R compared with CYP2B6dH",[3],~ 2 fold and 2 fold
O=C1Nc2c(O)cc(Cl)cc2[C@@](C#CC2CC2)(C(F)(F)F)O1 [8-hydroxyefavirenz],Susceptibility of K262R to mechanism-based inactivation,[4],preserved
"CCC(C)n1ncn(-c2ccc(N3CCN(c4ccc(OCC5COC(Cn6cncn6)(c6ccc(Cl)cc6Cl)O5)cc4)CC3)cc2)c1=O (stereo not drawn) [Itraconazole, itraconazole]","Increase in Ki, K262R compared with CYP2B6dH",[6],> 3 fold
same,Predicted inhibition of efavirenz metabolism (K262R),[11]; in vivo prediction,20%
same,Predicted inhibition of efavirenz metabolism (CYP2B6dH),[7],43%
same,Cmax,[8],1.9 µM
same,Kd,[9],0.07 ± 0.13 µM
same,Type of difference spectrum induced,[9],type I
same,ΔAmax (CYP2B6dH),[9],0.022 ± 0.003
same,Kd,[10],1.73 ± 0.44 µM
same,ΔAmax (K262R),[10],0.021 ± 0.002
same,"Higher Ks, K262R compared with CYP2B6dH",[10],> 20 fold and ~20 fold
same,"ΔAmax, K262R compared with wild-type",[10],similar
CC(C)=CCC/C(C)=C/COc1c2ccoc2cc2oc(=O)ccc12 [bergamottin],Susceptibility of K262R to mechanism-based inactivation,[4],preserved
"Clc1ccccc1C(c1ccccc1)(c1ccccc1)n1ccnc1 [Clotrimazole, clotrimazole]","Increase in Ki, K262R compared with CYP2B6dH",[6],similar
same,Predicted in vivo % activity (CYP2B6dH),[7],6%
same,Cmax,[8],3.7 µM
"S=P(N1CC1)(N1CC1)N1CC1 [N,N′,N″-triethylenethiophosphoramide]",Susceptibility of K262R to mechanism-based inactivation,[4],preserved
c1ccc(-c2ccncc2)cc1 [4-(phenyl)pyridine],"Lower IC50, K262R compared with CYP2B6dH",[3],10 fold
"O=C(c1ccc(OCCN2CCCCC2)cc1)c1c(-c2ccc(O)cc2)sc2cc(O)ccc12 [Raloxifene, raloxifene]",Predicted in vivo % activity (CYP2B6dH),[7],would not alter
same,Cmax,[8],0.003 µM
"COc1ccc2c(C(F)(F)F)cc(=O)oc2c1 [7-MFC, 7-Methoxy-4-(trifluoromethyl) coumarin]",kcat for 7-MFC oxidation (Q172H/K262R),[5],0.0217 s⁻¹
same,Km at 5 min,[12],49 µM
same,kcat for 7-MFC oxidation (K262R),[6],0.0817 s⁻¹
same,Km at 5 min,[13],5 µM
same,kcat for 7-MFC oxidation (CYP2B6dH),[14],0.0633 s⁻¹
same,"Km higher, Q172H/K262R vs CYP2B6dH or K262R",[15],~ 10 fold
same,"kcat lower, Q172H/K262R vs CYP2B6dH or K262R",[15],> 2 fold
same,Km at 5 min,[16],5.1 µM
O=C1Nc2ccc(Cl)cc2[C@@](C#CC2CC2)(C(F)(F)F)O1 [efavirenz],"Increased catalytic efficiency, K262R compared with CYP2B6dH",[17]; efavirenz to 8-hydroxyefavirenz,~ 2 fold
same,Km,[17]; read-out: Km for efavirenz hydroxylation (K262R),15.9 µM
same,kcat for efavirenz hydroxylation (K262R),[17],0.132 s⁻¹
same,Km,[18]; read-out: Km for efavirenz hydroxylation (CYP2B6dH),14.3 µM
same,kcat for efavirenz hydroxylation (CYP2B6dH),[18],0.0717 s⁻¹
same,Susceptibility of K262R to mechanism-based inactivation,[4],refractory
same,Reduced area under plasma concentration (AUC),[19],17%
